Measurements reported in paper PMC4269550, “Lead Optimization of a Pyrazole Sulfonamide Series of Trypanosoma bruceiN-Myristoyltransferase Inhibitors: Identification and Evaluation of CNS Penetrant Compounds as Potential Treatments for Stage 2 Human African Trypanosomiasis” (Journal of Medicinal Chemistry, 2014).
Values joined by “and” are separate entries in the source; they are usually repeats but may differ in a detail not shown here. Equal values may be shown once. Read-outs that look alike come from different tables or passages of the source.

Key:
[1] = Maximum tolerated dose in mice; conditions: mouse, in vivo
Mouse pharmacokinetics = format: in vivo; conditions: for oral exposure in mouse: words; for Cmax: oral dose 50mg/kg
Experimental: Test compound was dosed as a bolus solution intravenously at 3 mg free base/kg (dose volume, 5 mL/kg; dose vehicle, saline or 5% DMSO; 40% PEG400; 55% saline) to female NMRI mice (n = 3) or dosed orally by gavage as a solution at 10 and/or 50 mg free base/kg (dose volume, 5 mL/kg; dose vehicle, 5% DMSO; 95% distilled water or 5% DMSO; 40% PEG400; 55% distilled water) to female NMRI mice (n = 3/dose level). Female NMRI mice were chosen as these represent the sex and strain used for the stage 1 and stage 2 HAT efficacy models. Blood samples were taken from each mouse at 2 (IV only), 5 (IV only), 15, and 30 min, 1, 2, 4, 6, 8, and 24 (po only) hours postdose and mixed with two volumes of distilled water. After suitable sample preparation, the concentration of test compound in blood was determined by UPLC-MS/MS using a Quattro Premier XE (Waters, USA). Pharmacokinetic parameters were derived from the mean blood concentration time curve using PKsolutions software v 2.0 (Summit Research Services, USA).

[2] = test system: T. b. rhodesiense STIB900; assay: Stage 1 HAT mouse efficacy model, T. b. rhodesiense STIB900; format: in vivo; conditions: b.i.d. po for 4 days
[3] = In vitro metabolite identification with mouse microsomes; format: in vitro ADME; conditions: for % Parent remaining (t = 15 min): 5µM, 15 min at 37°C, mouse liver microsomes; for sulfonamide N-dealkylation on incubation with mouse microsomes: words
[4] = Rat hepatic portal vein study; format: in vivo; conditions: male Sprague–Dawley rat, 3 mg/kg orally
Experimental: aIC50 values are shown as mean values of two or more determinations. bCompounds with Hill slopes […]
Rat hepatic portal vein study protocol.
10mL/kg; Dose vehicle: 5% DMSO; 40% PEG400; 55% distilled water) to male Sprague-Dawley rats (n=7). A single rat was placed under terminal anaesthesia with isofluorane at 15 and 30 minutes, 1, 2, 4, 6 and 8 hours post-dose and a blood sample taken from the hepatic portal vein and the heart, each mixed with two volumes of distilled water. After suitable sample preparation, the concentration of compound 33 in all blood samples was determined by UPLC/MS/MS using a Quattro Premier XE (Waters, USA). The hepatic portal vein and cardiac blood concentration time profile is presented in Figure S2. Pharmacokinetic parameters were derived from the blood concentration time profiles using PKsolutions software v 2.0 (Summit Research Services, USA).

[5] = Intrinsic clearance (Cli), mouse liver microsomes; format: in vitro ADME; conditions: for Cli (mouse): mouse liver microsomes; for Cli: mouse microsomes
in vitro = format: cell-based, human; conditions: human; read-out: MRC-5 EC50
T. b. brucei GVR35 [6] = format: in vivo; conditions: for toxicity in infected mice in stage 2 model: dosed at the MTD b.i.d. po for 5 days, mice affected
Excerpt: NMRI mice used in the experiment were purchased from Harlan, UK. Mice were maintained under standard temperature/lighting conditions and given food and water ad libitum. The trypanosomes used in this study were of the cloned stabilate T. b. brucei GVR35, originally derived from trypanosomes isolated from a wildebeest in the Serengeti in 1966.[31] By 13 days postinfection, parasites entered the CNS.[32] If treatment is delayed until 21 days after infection, successful cure is therefore dependent on the ability of the compound to penetrate through the blood–brain barrier.[33] This model is widely used to evaluate the efficacy of new compounds for treatment against stage 2 HAT.[34]
Cryopreserved T. b. brucei GVR35 trypomastigotes were diluted to ∼5 × 10^4 cells/mL in 20 mM Hanks Balanced Salt Solution with glucose, and 0.2 mL of that dilution was used for infection (∼1 × 10^4 cells/mL per animal). All animals in the groups were intraperitoneally infected (ip) on day 0. After infection, parasitaemia was monitored by examination of tail blood smears. On day 21, post infection animals were randomly allocated to five mice per group. Infected animals were dosed with one of the following: diaminazene diaceturate (ip), 40 mg/kg once only as a HAT stage 1 control (early stage tyrypanocide to clear the parasites in the systemic circulation and in tissues other than CNS); Melasoprol (ip), 10 mg/kg once daily for 5 days as a positive control for HAT stage 2; […]. One group of five mice was an untreated control group. The dose solutions were prepared daily, using 5% DMSO:40% PEG400:55% Milli-Q water for compound (i.e., 40) and 10% DMSO:90% peanut oil for control drugs. To measure the response to treatment, parasitaemia was monitored twice per week until day 50. After day 50, the mice were checked only once per week until day 180 post treatment. Mice surviving to the end of experiment and blood smear aparasitaemic were considered cured.

[7] = Dose calculations for in vivo efficacy studies (brain concentration, brain free fraction); conditions: for oral dose needed to deliver stage 2 cures (Dose required): b.i.d., calculated to keep brain free concentration above T. brucei EC99
Experimental: isofluorane. A blood sample was taken by cardiac puncture into two volumes of distilled water and the brain removed. After suitable sample preparation, the concentration of 1 in blood and brain was determined by UPLC/MS/MS using a Quattro Premier XE (Waters, USA). For each rat, the concentration in brain (ng/g) was divided by the concentration in blood (ng/mL) to give a brain:blood (B:B) ratio. The mean value obtained was quoted. A higher B:B ratio in animals pre-treated with GF120918 is indicative of a Pgp substrate.
Dose calculations for in vivo efficacy studies.
Property Compound 40 Compound 46 Compound 42
Oral Dose 50mg/kg 50mg/kg 50mg/kg

[8] = test system: T. b. brucei, BSF427, VSG118; assay: Cell viability assay, trypanosome; format: cell-based; conditions: for ~EC99: T. brucei
T. b. brucei S427 = assay: Stage 1 HAT mouse efficacy model, T. b. brucei S427; format: in vivo; conditions: for Activity in stage 1 mouse model: T. b. brucei S427, 50 mg/kg b.i.d. po for 4 days
T. b. brucei GVR35 [9] = assay: Acute mouse model of T. b. brucei GVR35; format: in vivo
Mouse brain penetration = format: in vivo; conditions: female, NMRI, brain and blood, intravenous, 2 mg free base/kg, read-out: B:B (brain:blood ratio in mouse)
TbNMT = molecular target: T1, TbNMT (Trypanosoma brucei brucei, UniProt Q388H8); assay: NMT enzyme inhibition scintillation proximity assay (TbNMT); format: biochemical, T. brucei; conditions: mean of two or more determinations; read-out: TbNMT IC50
T1 sequence (Q388H8 1-446): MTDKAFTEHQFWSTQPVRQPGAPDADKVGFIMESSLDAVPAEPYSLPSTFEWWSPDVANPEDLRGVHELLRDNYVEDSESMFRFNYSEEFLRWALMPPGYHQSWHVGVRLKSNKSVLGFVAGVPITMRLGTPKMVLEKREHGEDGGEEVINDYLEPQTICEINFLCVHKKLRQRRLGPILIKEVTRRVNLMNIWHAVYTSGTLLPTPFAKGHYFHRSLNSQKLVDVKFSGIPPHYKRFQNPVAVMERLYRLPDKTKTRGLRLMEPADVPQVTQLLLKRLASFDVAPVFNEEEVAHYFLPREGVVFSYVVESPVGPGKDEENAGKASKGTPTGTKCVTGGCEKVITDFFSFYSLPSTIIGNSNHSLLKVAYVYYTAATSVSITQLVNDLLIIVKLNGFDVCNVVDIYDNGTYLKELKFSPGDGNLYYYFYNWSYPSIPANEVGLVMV

[10] = test system: MRC5, human lung fibroblast cells; assay: in vitro; format: cell-based
HsNMT = format: biochemical, human
[11] = female, NMRI, whole blood, mouse

## Cc1c(NS(=O)(=O)c2c(Cl)cc(-c3ccnc(N4CCNCC4)c3)cc2Cl)c(CC(C)C)nn1C [compound 6]
[1]; po
  MTD: 20 mg/kg
Mouse pharmacokinetics; female, NMRI, whole blood, mouse, 10 mg/kg po, read-out: AUC0–8 (converted)
  AUC(0-t): 56700 ng·h/mL
[2]
  stage 1 HAT minimal curative dose, T. b. rhodesiense STIB900: 6 mg/kg

## Cc1nn(C)c(C)c1N(C)S(=O)(=O)c1c(Cl)cc(CCCN2CCN(C)CC2)cc1Cl [compound 33]
[3]
  % Parent remaining (t = 15 min): 6%
  sulfonamide N-dealkylation on incubation with mouse microsomes: N-dealkylated sulfonamide as the predominant metabolite
[4]
  hepatic extraction of the parent: almost total hepatic extraction
[5]
  Cli (mouse): 7.4 mL min^–1 g^–1
  Cli: 7.4 mL/min/g

## CCN(c1c(C)nn(C)c1C)S(=O)(=O)c1c(Cl)cc(CCCN2CCN(C)CC2)cc1Cl [compound 34]
[3]
  % Parent remaining (t = 15 min): 37%
  sulfonamide N-dealkylation on incubation with mouse microsomes: N-dealkylated sulfonamide as the predominant metabolite
Mouse pharmacokinetics
  oral exposure in mouse: poor oral exposure
[5]
  Cli (mouse): 3.1 mL min^–1 g^–1
  Cli: 3.1 mL/min/g

## Cc1nn(C)c(C)c1N(C)[S+](=O)([O-])c1c(Cl)cc(CCCC2CCN(C)CC2)cc1Cl [compound 37]
In vitro
  EC50: 1100 nM
[3]
  % Parent remaining (t = 15 min): 25%
  sulfonamide N-dealkylation on incubation with mouse microsomes: N-dealkylated sulfonamide as the predominant metabolite
[5]
  Cli (mouse): 7.3 mL min^–1 g^–1
  Cli: 7.3 mL/min/g

## CCN(c1c(C)nn(C)c1C)[S+](=O)([O-])c1c(Cl)cc(CCCC2CCN(C)CC2)cc1Cl [compound 39]
In vitro
  EC50: 2200 nM
[3]
  % Parent remaining (t = 15 min): 52%
  sulfonamide N-dealkylation on incubation with mouse microsomes: N-dealkylated sulfonamide as the predominant metabolite
[5]
  Cli (mouse): 12 mL min^–1 g^–1

## Cc1nn(C)c(C)c1N(C(F)F)S(=O)(=O)c1c(Cl)cc(CCCC2CCN(C)CC2)cc1Cl [compound 40, 2,6-Dichloro-N-(difluoromethyl)-4-(3-(1-methylpiperidin-4-yl)propyl)-N-(1,3,5-trimethyl-1H-pyrazol-4-yl)benzenesulfonamide]
T. b. brucei GVR35 [6]
  toxicity in infected mice in stage 2 model: 1/5
T. b. brucei GVR35 [6]; the two 100 mg/kg extended dosing schedules (8 days; 3 x 3 days pulsed)
  efficacy in stage 2 model (mice cured): 1/5
T. b. brucei GVR35 [6]; words
  efficacy in a stage 2 (CNS) mouse model of HAT: partial efficacy
[7]
  oral dose needed to deliver stage 2 cures (Dose required): 20 mg/kg
[7]; mouse, in vivo
  fraction unbound: 0.019
[7]; oral dose 50mg/kg
  Conc in brain: 1031 ng/g
  Free brain conc: 19.6 ng/g
[8]
  ~EC99: […]
[1]; po
  MTD at 1 day: 100 mg/kg
T. b. brucei S427
  Activity in stage 1 mouse model: fully curative
[3]
  % Parent remaining (t = 15 min): 67%
  sulfonamide N-dealkylation on incubation with mouse microsomes: did not undergo sulfonamide N-dealkylation
Mouse pharmacokinetics; [11]
  Cmax: 661 ng/mL
Mouse pharmacokinetics
  oral exposure in mouse: good oral exposure

## Cc1nn(C)c(C)c1N(CC(F)(F)F)[S+](=O)([O-])c1c(Cl)cc(CCCC2CCN(C)CC2)cc1Cl [compound 42]
T. b. brucei GVR35 [6]; T. b. brucei GVR35, 150 mg/kg b.i.d. po for 5 days
  cures in stage 2 model: none of the mice were cured
T. b. brucei GVR35 [6]
  toxicity in infected mice in stage 2 model: well tolerated
[7]; NMRI, mouse, in vivo, oral dose 50mg/kg, read-out: Free brain conc at 8 hours post-dose
  concentration at 8 h: 6.2 ng/g
[7]
  oral dose needed to deliver stage 2 cures (Dose required): 250 mg/kg
[7]; mouse, in vivo
  fraction unbound: 0.032
[7]; oral dose 50mg/kg
  Conc in brain: 569 ng/g
  Free brain conc: 18.2 ng/g
[8]
  ~EC99: ~56 nM and ~31 ng/mL
[1]
  MTD at 1 day: > 200 mg/kg
T. b. brucei S427
  Activity in stage 1 mouse model: fully curative
Mouse pharmacokinetics; [11]
  Cmax: 876 ng/mL
[5]
  Cli (mouse): 1.1 mL min^–1 g^–1
  Cli: 1.1 mL/min/g

## Cc1nn(C)c(C)c1N(C(F)F)S(=O)(=O)c1c(Cl)cc(CCCCC2CCN(C)CC2)cc1Cl [compound 46]
T. b. brucei GVR35 [9]; b.i.d. po for 4 days
  minimum curative dose, acute model of T. b. brucei GVR35: 25 mg/kg
T. b. brucei GVR35 [9]; in vivo
  reduction in efficacy, T. b. brucei GVR35 compared to S427: ~4 fold
T. b. brucei GVR35 [6]
  toxicity in infected mice in stage 2 model: 2/5
T. b. brucei GVR35 [6]; extended 50 mg/kg dose regimen
  toxicity in stage 2 model: significant toxicity
T. b. brucei GVR35 [6]; extended regimens: 25 mg/kg b.i.d. for 10 days, 50 mg/kg b.i.d. po for 8 days
  cures in stage 2 model: no cures
[7]
  oral dose needed to deliver stage 2 cures (Dose required): 15 mg/kg
[7]; mouse, in vivo
  fraction unbound: 0.01
[7]; oral dose 50mg/kg
  Conc in brain: 935 ng/g
  Free brain conc: 9.4 ng/g
[8]
  ~EC99: ~2 nM and ~1.1 ng/mL
[1]; po
  MTD at 1 day: 50 mg/kg
T. b. brucei S427; b.i.d. po, mouse
  stage 1 HAT minimal curative dose, T. b. brucei S427: 6 mg/kg
Mouse pharmacokinetics; [11]
  Cmax: 708 ng/mL

## Cc1nn(C)c(C)c1N(C(F)F)S(=O)(=O)c1c(Cl)cc(CCCN2CCN3CCC[C@@H]3C2)cc1Cl [compound 53]
Mouse pharmacokinetics
  oral exposure in mouse: no improvement to oral exposure
[5]
  Cli (mouse): 15 mL min^–1 g^–1
  Cli: 15 mL/min/g

## Cc1nn(C)c(C)c1NS(=O)(=O)c1ccc(-c2ccnc(N3CCNCC3)c2)cc1 [compound 55]
In vitro
  EC50: 1400 nM
[8]; Trypanosoma brucei
  EC50: 4 nM
Mouse brain penetration
  Kp: 0.1

## Cc1nn(C)c(C)c1N(C(F)F)S(=O)(=O)c1c(Cl)cc(CCCOC[C@H]2CCCCN2)cc1Cl [compound 89]
TbNMT
  IC50: 7 nM
[10]
  EC50: 5000 nM
[8]
  EC50: 85 nM
HsNMT; mean of two or more determinations
  IC50: 570 nM
HsNMT; selectivity
  S = IC50 HsNMT/EC50 T. brucei: 7
